“And” between values parts separate entries of the source, which are not always exact repeats. Identical values can stand only once.
What was measured:
Type in all cases: cell-based, human
[1] = test system: PBMC from allergic donors; assay: IL-5 ELISPOT with extract-stimulated short-term lines; conditions: positive donor/peptide response
Description: (§1) Spots were counted by computer-assisted image analysis (Zeiss, KS-ELISPOT reader, Munich, Germany).
(§2) Each assay was performed in triplicate. The level of statistical significance was determined with a Student's t-test using the mean of triplicate values of the response against relevant pools or individual peptides versus the response against the DMSO control.

[2] = test system: PBMC from allergic donors; assay: Dual ELISPOT, total IL-5 and IFN-γ response (SFC); conditions: sum of IFNg and IL-5
Description: as §1, §2

[3] = test system: PBMC from allergic donors; assay: IFN-γ ELISPOT with extract-stimulated short-term lines; conditions: positive donor/peptide response
Description: as §1, §2

| Compound | Response (SFC/10^6) IL-5 ([1]; each table line is one donor) | Response (SFC/10^6) Total ([2]; each table line is one donor) | Response (SFC/10^6) IFNg ([3]; each table line is one donor) | Response (SFC/10^6) IL-5 ([1]; one donor per table line) | Response (SFC/10^6) Total ([2]; one donor per table line) | Response (SFC/10^6) IFNg ([3]; one donor per table line) |
| --- | --- | --- | --- | --- | --- | --- |
| 3324.1168 (NAGFKAAVAAAAVVP) | 873 SFC/10^6 and 977 SFC/10^6 and 248 SFC/10^6 | 1723 SFC/10^6 and 977 SFC/10^6 and 248 SFC/10^6 | 850 SFC/10^6 |  |  |  |
| CC[C@H](C)[C@H](NC(=O)[C@H](CC(C)C)NC(=O)[C@H](CC(N)=O)NC(=O)[C@H](CC(=O)O)NC(=O)[C@H](CO)NC(=O)[C@H](CC(=O)O)NC(=O)[C@H](CC(C)C)NC(=O)[C@@H](NC(=O)[C@H](Cc1ccccc1)NC(=O)[C@H](C)NC(=O)[C@@H](N)CCCCN)C(C)C)C(=O)N1CCC[C@H]1C(=O)N[C@@H](CCCCN)C(=O)N[C@H](C(=O)N[C@H](C(=O)O)C(C)C)C(C)C [3324.1588] |  |  |  | 123 SFC/10^6 and 947 SFC/10^6 and 57 SFC/10^6 | 123 SFC/10^6 and 1147 SFC/10^6 and 57 SFC/10^6 | 200 SFC/10^6 |
| CC[C@H](C)[C@H](NC(=O)[C@@H](NC(=O)[C@H](CCCNC(=N)N)NC(=O)[C@H](CC(C)C)NC(=O)[C@H](C)NC(=O)[C@H](CCC(=O)O)NC(=O)[C@@H](NC(=O)[C@H](CC(C)C)NC(=O)[C@@H](NC(=O)[C@H](C)NC(=O)[C@@H](NC(=O)[C@H](Cc1ccc(O)cc1)NC(=O)[C@H](C)NC(=O)[C@@H](N)CC(=O)O)C(C)C)[C@@H](C)O)[C@@H](C)O)C(C)C)C(=O)N[C@@H](C)C(=O)O [3324.1167] | 410 SFC/10^6 and 1743 SFC/10^6 | 1427 SFC/10^6 and 1743 SFC/10^6 | 1017 SFC/10^6 |  |  |  |
| CC[C@H](C)[C@H](NC(=O)[C@H](CC(=O)O)NC(=O)[C@H](CCC(=O)O)NC(=O)[C@H](CCSC)NC(=O)[C@H](CC(C)C)NC(=O)[C@H](CCCCN)NC(=O)[C@@H](N)CCC(N)=O)C(=O)N[C@@H](CC(N)=O)C(=O)N[C@H](C(=O)NCC(=O)N[C@@H](Cc1ccccc1)C(=O)N[C@@H](CCCCN)C(=O)N[C@@H](C)C(=O)N[C@@H](C)C(=O)N[C@H](C(=O)O)C(C)C)C(C)C [3324.1580] | 107 SFC/10^6 | 317 SFC/10^6 and 390 SFC/10^6 | 317 SFC/10^6 and 283 SFC/10^6 |  |  |  |
| CC[C@H](C)[C@H](NC(=O)[C@@H](N)CC(=O)O)C(=O)N[C@@H](CC(N)=O)C(=O)N[C@H](C(=O)NCC(=O)N[C@@H](Cc1ccccc1)C(=O)N[C@@H](CCCCN)C(=O)N[C@@H](C)C(=O)N[C@@H](C)C(=O)N[C@H](C(=O)N[C@@H](C)C(=O)N[C@@H](C)C(=O)N[C@@H](C)C(=O)N[C@@H](C)C(=O)NCC(=O)O)C(C)C)C(C)C [3324.1571] | 397 SFC/10^6 and 1057 SFC/10^6 | 397 SFC/10^6 and 47 SFC/10^6 and 1057 SFC/10^6 and 1183 SFC/10^6 | 47 SFC/10^6 and 1183 SFC/10^6 |  |  |  |
| 3324.1592 (LGRAWFEAARVVFSY) | 1430 SFC/10^6 | 1550 SFC/10^6 | 120 SFC/10^6 |  |  |  |
| 3337.0044 (IKLVKSSRPDCSEIP) | 233 SFC/10^6 | 90 SFC/10^6 and 233 SFC/10^6 | 90 SFC/10^6 |  |  |  |
| CC[C@H](C)[C@H](NC(=O)[C@H](Cc1ccccc1)NC(=O)[C@H](C)NC(=O)[C@@H](N)CC(=O)O)C(=O)N[C@@H](C)C(=O)N[C@@H](C)C(=O)N[C@@H](CC(C)C)C(=O)N[C@H](C(=O)N[C@@H](CCC(=O)O)C(=O)N[C@@H](C)C(=O)N[C@@H](CC(C)C)C(=O)N[C@@H](CCCNC(=N)N)C(=O)N[C@H](C(=O)N[C@H](C(=O)N[C@@H](C)C(=O)O)[C@@H](C)CC)C(C)C)[C@@H](C)O [3324.1432] | 540 SFC/10^6 | 713 SFC/10^6 and 540 SFC/10^6 | 713 SFC/10^6 |  |  |  |
| 3324.1586 (KAVEAYLVAHPDLYK) |  |  |  | 83 SFC/10^6 and 53 SFC/10^6 and 143 SFC/10^6 and 443 SFC/10^6 | 83 SFC/10^6 and 53 SFC/10^6 and 143 SFC/10^6 and 553 SFC/10^6 | 110 SFC/10^6 |
| 3324.0660 (IPTAFKIGTTYTPEE) |  |  |  | 170 SFC/10^6 | 280 SFC/10^6 | 110 SFC/10^6 |
| 3324.1104 (LGFFKKEALPQCAQV) |  |  |  | 573 SFC/10^6 | 627 SFC/10^6 | 53 SFC/10^6 |

From patent US10918713B2, “Epitopes from allergen proteins and methods and uses for immune response modulation” (LA JOLLA INSTITUTE FOR ALLERGY AND IMMUNOLOGY, priority 2012, dated 2021)
